Read-outs that look alike come from different tables or passages of the source.
Columns and labels:
Assay in all cases: Test F pre-/postemergence plant response
Assay type in all cases: in vivo
[1] = system: barnyardgrass (Echinochloa crus-galli); details: Echinochloa crus-galli, scale 0 to 100, read-out: Plant response rating, Barnyardgrass
Method in brief: (§1)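 In a greenhouse, compounds carried in a non-phytotoxic surfactant-containing solvent mixture were applied to soil at planting and to young 1- to 4-leaf plants. About two to three weeks (14 to 21 days) afterward, each species was compared with controls and rated visually from 0 to 100.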

kochia (Kochia scoparia) = details: Bassia scoparia, pre-emergence, scale 0 to 100, read-out: Plant response rating, Kochia
Method in brief: as §1

[2] = system: lambsquarters (Chenopodium album); details: Chenopodium album, pre-emergence, scale 0 to 100, read-out: Plant response rating, Lambsquarters
Method in brief: as §1

[3] = system: dayflower (Virginia (VA) dayflower, Commelina virginica); details: Commelina virginica, scale 0 to 100, read-out: Plant response rating, Dayflower, VA
Method in brief: as §1

[4] = system: yellow nutsedge (Cyperus esculentus); details: Cyperus, pre-emergence, scale 0 to 100, read-out: Plant response rating, Nutsedge, Yellow
Method in brief: as §1

[5] = system: waterhemp (common waterhemp, Amaranthus rudis); details: Amaranthus tuberculatus, scale 0 to 100, read-out: Plant response rating, Waterhemp
Method in brief: as §1

[6] = system: johnsongrass (Sorghum halepense); details: Sorghum halepense, pre-emergence, scale 0 to 100, read-out: Plant response rating, Johnsongrass
Method in brief: as §1

[7] = system: wild poinsettia (Euphorbia heterophylla); details: Euphorbia heterophylla, scale 0 to 100, read-out: Plant response rating, Poinsettia, Wild
Method in brief: as §1

[8] = system: large (Lg) crabgrass (Digitaria sanguinalis); details: Digitaria sanguinalis, pre-emergence, scale 0 to 100, read-out: Plant response rating, Crabgrass, Large
Method in brief: as §1

[9] = system: giant foxtail (Setaria faberii); details: Setaria faberi, pre-emergence, scale 0 to 100, read-out: Plant response rating, Foxtail, Giant
Method in brief: as §1

[10] = system: green foxtail (Setaria viridis); details: Setaria viridis, pre-emergence, scale 0 to 100, read-out: Plant response rating, Foxtail, Green
Method in brief: as §1

[11] = system: ragweed (common ragweed, Ambrosia elatior); details: Ambrosia artemisiifolia, pre-emergence, scale 0 to 100, read-out: Plant response rating, Ragweed
Method in brief: as §1

[12] = system: field bindweed (Convolvulus arvensis); details: Convolvulus arvensis, scale 0 to 100, read-out: Plant response rating, Field Bindweed
Method in brief: as §1

soybean (Glycine max) = details: Glycine max, scale 0 to 100, read-out: Plant response rating, Soybean
Method in brief: as §1

[13] = system: surinam grass (Brachiaria decumbens); details: Urochloa decumbens, pre-emergence, scale 0 to 100, read-out: Plant response rating, Surinam Grass
Method in brief: as §1

[14] = system: morningglory (Ipomoea coccinea); details: Ipomoea, pre-emergence, scale 0 to 100, read-out: Plant response rating, Morningglory
Method in brief: as §1

[15] = system: Italian ryegrass (Lolium multiflorum); details: Lolium multiflorum, scale 0 to 100, read-out: Plant response rating, Ryegrass, Italian; for pest or weed control at 16 g/ha: 16 g ai/ha; for pest or weed control at 31 g/ha: 31 g ai/ha; for pest or weed control at 125 g/ha: 125 g ai/ha
Method in brief: as §1

[16] = post-emergence, 8 g ai/ha Postemergence
[17] = post-emergence, 16 g ai/ha Postemergence
[18] = post-emergence, 31 g ai/ha Postemergence
[19] = post-emergence, 62 g ai/ha Postemergence
[20] = post-emergence, 125 g ai/ha Postemergence
[21] = pre-emergence, 8 g ai/ha Preemergence
[22] = pre-emergence, 16 g ai/ha Preemergence
[23] = pre-emergence, 31 g ai/ha Preemergence
[24] = pre-emergence, 62 g ai/ha Preemergence
[25] = pre-emergence, 125 g ai/ha Preemergence

## FC(F)c1cc(-c2ccccc2Oc2ncc(Cl)cn2)no1 [Compound 35, 5-chloro-2-[2-[5-(difluoromethyl)-3-isoxazolyl]phenoxy]pyrimidine]
[1]; [16]
  pest or weed control at 8 g/ha: 0%
[1]; [17]
  pest or weed control at 16 g/ha: 0%
[1]; [18]
  pest or weed control at 31 g/ha: 0%
[1]; [19]
  pest or weed control at 62 g/ha: 10%
[1]; [20]
  pest or weed control at 125 g/ha: 20%
[1]; [21]
  pest or weed control at 8 g/ha: 0%
[1]; [22]
  pest or weed control at 16 g/ha: 0%
[1]; [23]
  pest or weed control at 31 g/ha: 20%
[1]; [24]
  pest or weed control at 62 g/ha: 10%
[1]; [25]
  pest or weed control at 125 g/ha: 65%
Kochia (Kochia scoparia); 8 g ai/ha Preemergence
  pest or weed control at 8 g/ha: 0%
Kochia (Kochia scoparia); 16 g ai/ha, Preemergence
  pest or weed control at 16 g/ha: 40%
Kochia (Kochia scoparia); 31 g ai/ha, Preemergence
  pest or weed control at 31 g/ha: 85%
Kochia (Kochia scoparia); 125 g ai/ha, Preemergence
  pest or weed control at 125 g/ha: 100%
Kochia (Kochia scoparia); Preemergence
  pest or weed control at 62 g/ha: 100%
[2]; 8 g ai/ha Preemergence
  pest or weed control at 8 g/ha: 90%
[2]; 16 g ai/ha, Preemergence
  pest or weed control at 16 g/ha: 98%
[2]; 31 g ai/ha, Preemergence
  pest or weed control at 31 g/ha: 100%
[2]; 125 g ai/ha, Preemergence
  pest or weed control at 125 g/ha: 100%
[2]; Preemergence
  pest or weed control at 62 g/ha: 100%
[3]; [16]
  pest or weed control at 8 g/ha: 10%
[3]; [17]
  pest or weed control at 16 g/ha: 40%
[3]; [18]
  pest or weed control at 31 g/ha: 40%
[3]; [19]
  pest or weed control at 62 g/ha: 50%
[3]; [20]
  pest or weed control at 125 g/ha: 80%
[3]; [21]
  pest or weed control at 8 g/ha: 0%
[3]; [22]
  pest or weed control at 16 g/ha: 25%
[3]; [23]
  pest or weed control at 31 g/ha: 65%
[3]; [24]
  pest or weed control at 62 g/ha: 90%
[3]; [25]
  pest or weed control at 125 g/ha: 95%
[4]; 8 g ai/ha Preemergence
  pest or weed control at 8 g/ha: 0%
[4]; 16 g ai/ha Preemergence
  pest or weed control at 16 g/ha: 0%
[4]; 31 g ai/ha Preemergence
  pest or weed control at 31 g/ha: 0%
[4]; 125 g ai/ha Preemergence
  pest or weed control at 125 g/ha: 35%
[4]; Preemergence
  pest or weed control at 62 g/ha: 10%
[5]; [16]
  pest or weed control at 8 g/ha: 70%
[5]; [17]
  pest or weed control at 16 g/ha: 85%
[5]; [18]
  pest or weed control at 31 g/ha: 90%
[5]; [19]
  pest or weed control at 62 g/ha: 100%
[5]; [20]
  pest or weed control at 125 g/ha: 100%
[5]; [21]
  pest or weed control at 8 g/ha: 100%
[5]; [22]
  pest or weed control at 16 g/ha: 100%
[5]; [23]
  pest or weed control at 31 g/ha: 100%
[5]; [25]
  pest or weed control at 125 g/ha: 100%
[5]; pre-emergence, Preemergence
  pest or weed control at 62 g/ha: 100%
[6]; 8 g ai/ha Preemergence
  pest or weed control at 8 g/ha: 0%
[6]; 16 g ai/ha Preemergence
  pest or weed control at 16 g/ha: 0%
[6]; 31 g ai/ha Preemergence
  pest or weed control at 31 g/ha: 0%
[6]; 125 g ai/ha Preemergence
  pest or weed control at 125 g/ha: 65%
[6]; Preemergence
  pest or weed control at 62 g/ha: 35%
[7]; [16]
  pest or weed control at 8 g/ha: 30%
[7]; [17]
  pest or weed control at 16 g/ha: 40%
[7]; [18]
  pest or weed control at 31 g/ha: 50%
[7]; [19]
  pest or weed control at 62 g/ha: 50%
[7]; [20]
  pest or weed control at 125 g/ha: 80%
[7]; [21]
  pest or weed control at 8 g/ha: 20%
[7]; [22]
  pest or weed control at 16 g/ha: 30%
[7]; [23]
  pest or weed control at 31 g/ha: 35%
[7]; [25]
  pest or weed control at 125 g/ha: 40%
[7]; pre-emergence, Preemergence
  pest or weed control at 62 g/ha: 70%
[8]; 8 g ai/ha Preemergence
  pest or weed control at 8 g/ha: 0%
[8]; 16 g ai/ha Preemergence
  pest or weed control at 16 g/ha: 60%
[8]; 31 g ai/ha Preemergence
  pest or weed control at 31 g/ha: 75%
[8]; 62 g ai/ha Preemergence
  pest or weed control at 62 g/ha: 75%
[8]; 125 g ai/ha Preemergence
  pest or weed control at 125 g/ha: 100%
[9]; 8 g ai/ha Preemergence
  pest or weed control at 8 g/ha: 0%
[9]; 16 g ai/ha Preemergence
  pest or weed control at 16 g/ha: 10%
[9]; 31 g ai/ha Preemergence
  pest or weed control at 31 g/ha: 70%
[9]; 62 g ai/ha Preemergence
  pest or weed control at 62 g/ha: 70%
[9]; 125 g ai/ha Preemergence
  pest or weed control at 125 g/ha: 100%
[10]; 8 g ai/ha Preemergence
  pest or weed control at 8 g/ha: 0%
[10]; 16 g ai/ha, Preemergence
  pest or weed control at 16 g/ha: 0%
[10]; 31 g ai/ha, Preemergence
  pest or weed control at 31 g/ha: 30%
[10]; 125 g ai/ha, Preemergence
  pest or weed control at 125 g/ha: 98%
[10]; Preemergence
  pest or weed control at 62 g/ha: 75%
[11]; 8 g ai/ha Preemergence
  pest or weed control at 8 g/ha: 0%
[11]; 16 g ai/ha Preemergence
  pest or weed control at 16 g/ha: 0%
[11]; 31 g ai/ha Preemergence
  pest or weed control at 31 g/ha: 0%
[11]; 125 g ai/ha Preemergence
  pest or weed control at 125 g/ha: 70%
[11]; Preemergence
  pest or weed control at 62 g/ha: 40%
[12]; [16]
  pest or weed control at 8 g/ha: 20%
[12]; [17]
  pest or weed control at 16 g/ha: 30%
[12]; [18]
  pest or weed control at 31 g/ha: 35%
[12]; [19]
  pest or weed control at 62 g/ha: 50%
[12]; [20]
  pest or weed control at 125 g/ha: 70%
[12]; [21]
  pest or weed control at 8 g/ha: 0%
[12]; [22]
  pest or weed control at 16 g/ha: 35%
[12]; [23]
  pest or weed control at 31 g/ha: 50%
[12]; [24]
  pest or weed control at 62 g/ha: 50%
[12]; [25]
  pest or weed control at 125 g/ha: 50%
Soybean (Glycine max); [16]
  plant injury at 8 g/ha: 70%
Soybean (Glycine max); [17]
  plant injury at 16 g/ha: 80%
Soybean (Glycine max); [18]
  plant injury at 31 g/ha: 85%
Soybean (Glycine max); [19]
  plant injury at 62 g/ha: 95%
Soybean (Glycine max); [20]
  plant injury at 125 g/ha: 98%
Soybean (Glycine max); [21]
  plant injury at 8 g/ha: 0%
Soybean (Glycine max); [22]
  plant injury at 16 g/ha: 35%
Soybean (Glycine max); [23]
  plant injury at 31 g/ha: 40%
Soybean (Glycine max); [25]
  plant injury at 125 g/ha: 90%
Soybean (Glycine max); pre-emergence, Preemergence
  plant injury at 62 g/ha: 70%
[13]; 8 g ai/ha Preemergence
  pest or weed control at 8 g/ha: 0%
[13]; 16 g ai/ha Preemergence
  pest or weed control at 16 g/ha: 0%
[13]; 31 g ai/ha Preemergence
  pest or weed control at 31 g/ha: 0%
[13]; 125 g ai/ha Preemergence
  pest or weed control at 125 g/ha: 35%
[13]; Preemergence
  pest or weed control at 62 g/ha: 20%
[14]; 8 g ai/ha Preemergence
  pest or weed control at 8 g/ha: 0%
[14]; 16 g ai/ha Preemergence
  pest or weed control at 16 g/ha: 0%
[14]; 31 g ai/ha Preemergence
  pest or weed control at 31 g/ha: 0%
[14]; 125 g ai/ha Preemergence
  pest or weed control at 125 g/ha: 65%
[14]; Preemergence
  pest or weed control at 62 g/ha: 30%
[15]; [16]
  pest or weed control at 8 g/ha: 0%
[15]; post-emergence, Postemergence
  pest or weed control at 16 g/ha: 0%
  pest or weed control at 31 g/ha: 0%
  pest or weed control at 125 g/ha: 0%
[15]; post-emergence, 62 g ai/ha, Postemergence
  pest or weed control at 62 g/ha: 0%
[15]; [21]
  pest or weed control at 8 g/ha: 0%
[15]; pre-emergence, Preemergence
  pest or weed control at 16 g/ha: 0%
  pest or weed control at 31 g/ha: 15%
  pest or weed control at 125 g/ha: 70%
  pest or weed control at 62 g/ha: 65%
